Results from patent US11192890B2, “FGFR kinase inhibitors and pharmaceutical uses” (AUCKLAND UNISERVICES LIMITED, priority 2017, dated 2021).
Read-outs that look alike come from different tables or passages of the source.

Tests used:
SUM52 cells = assay: Oxic and anoxic anti-proliferative activity of the prodrugs; details: for Hypoxic Cytotoxicity Ratio (HCR), SUM52: ratio of oxic and anoxic IC50
H520 cells = assay: as above
SW780 cells = assay: as above; format: cell-based; details: Homo sapiens, SW780; oxic conditions; read-out: Cellular Anti-proliferative IC50, SW780, Oxic
[1] = system: FGFR1 in H520 cells (phospho-ERK1/2); assay: Drug washout Western blot assay, H520 cells; format: cell-based; details: H520; for reversible or irreversible inhibition of FGFR1 in cells / concentration required to suppress FGFR1 signalling through phospho-ERK1/2: 2 hours exposure; for reversible or irreversible inhibition of FGFR1 in cells: 100, 300 and 600 nM, with and without washout; for concentration required to suppress FGFR1 signalling through phospho-ERK1/2: tested at 100, 300 and 600 nM; for phospho-ERK1/2 after extensive drug washout: 30 min, washout prior to FGF-stimulation
[2] = system: FGFR3 in SW780 cells (phospho-ERK1/2); assay: Drug washout Western blot assay, SW780 cells; format: cell-based; details: SW780, 30 min; for inhibition of phosphorylation of ERK1/2, no washout: then FGF-stimulation; for phospho-ERK1/2 after extensive drug washout: washout prior to FGF-stimulation
[3] = system: FGFR3-amplified SW780 bladder cancer cells; assay: Cell proliferation assay (SRB); details: Homo sapiens, SW780, 120 h, read-out: Cellular Anti-proliferative IC50, SW780, 5 days drug exposure
[4] = system: FGFR2-amplified SUM52 breast cancer cells; assay: Cell proliferation assay (SRB); format: cell-based; details: SUM52, 120 h, read-out: Cellular Anti-proliferative IC50, SUM52, 5 days drug exposure
[5] = system: FGFR2 in SUM52 cells (phospho-ERK1/2); assay: Drug washout Western blot assay, SUM52 cells; format: cell-based; details: SUM52, 30 min, washout prior to FGF-stimulation
Description: Cells were seeded on the day prior to drug treatment (1 million cells/well; 6-well plate).
Drug stocks were prepared in media using 1 mM or 10 mM DMSO stock solutions. Media was aspirated from each well and replaced with 2 ml of drug-free media for control wells or 2 ml of diluted drug for treated wells. Cells were exposed to drug for 30 min. Recombinant FGF (50 ng/well) was added to each well 15 minutes prior to the end of the drug exposure and protein was extracted as below.
Cells were exposed to drug for 30 min as above. Media was aspirated and each well was washed with 5 ml drug-free media. The wash media was aspirated and replaced with 2 ml drug-free media and cells incubated for a further 30 minutes, after which the wash protocol was repeated. Cells were incubated for a further 90 minutes in drug-free media. Recombinant FGF (50 ng/well) was added to each well 15 minutes prior to the end of the drug-free incubation and protein was extracted as below.
Cell lysates were prepared in 250 μL of RIPA lysis buffer containing protease inhibitor (1:100). After incubation on ice (30 min) and centrifugation (13,000 rpm, 5 min, 4° C.) the supernatants containing the proteins were stored (−20° C.) until required. Bicinchoninic acid (BCA) assay was used to determine the protein concentration of individual cell lysate samples.

[6] = read-out: Cellular Anti-proliferative IC50, SUM52, Anoxic, 4 hours of anoxia, remainder of assay oxic
[7] = read-out: Cellular Anti-proliferative IC50, SUM52, Oxic, oxic conditions
[8] = read-out: Cellular Anti-proliferative IC50, H520, Oxic, oxic conditions

Row | IC50 (H520 cells; [8]) [nM] | IC50 (SW780 cells) [nM] | melting point [°C] | SMILES | Hypoxic Cytotoxicity Ratio (HCR), SUM52 (SUM52 cells) | IC50 (SUM52 cells; [6]) [nM] | IC50 (SUM52 cells; [7]) [nM] | reversible or irreversible inhibition of FGFR1 in cells [1] | other results
1 | 902 | 1990 | 184 to 187 | COc1cc(OC)c(Cl)c(N2Cc3cnc(NC(C)C)nc3N([C@H]3CCN(C(=O)/C=C/C[N+](C)(C)Cc4c([N+](=O)[O-])ncn4C)C3)C2=O)c1Cl.[Br-] [Compound 201, (S,E)-4-(3-(3-(2,6-dichloro-3,5-dimethoxyphenyl)-7-(isopropylamino)-2-oxo-3,4-dihydropyrimido[4,5-d]pyrimidin-1(2H)-yl)pyrrolidin-1-yl)-N,N-dimethyl-N-((1-methyl-4-nitro-1H-imidazol-5-yl)methyl)-4-oxobut-2-en-1-aminium bromide] | 16 | 38 | 612 | reversible inhibitors | –
2 | – | – | 157 to 160 | COc1cc(OC)c(Cl)c(N2Cc3cnc(NC4CCOCC4)nc3N(C3CCN(C(=O)/C=C/C[N+](C)(C)Cc4c([N+](=O)[O-])ncn4C)CC3)C2=O)c1Cl.O=C([O-])C(F)(F)F [Compound 203, (E)-4-(4-(3-(2,6-dichloro-3,5-dimethoxyphenyl)-2-oxo-7-((tetrahydro-2H-pyran-4-yl)amino)-3,4-dihydropyrimido[4,5-d]pyrimidin-1(2H)-yl)piperidin-1-yl)-N,N-dimethyl-N-((1-methyl-4-nitro-1H-imidazol-5-yl)methyl)-4-oxobut-2-en-1-aminium 2,2,2-trifluoroacetate] | 26 | 37 | 961 | – | –
3 | 668 | 1470 | 162 to 165 | COc1cc(OC)c(Cl)c(N2Cc3cnc(Nc4ccc(F)cc4)nc3N(C3CCN(C(=O)/C=C/C[N+](C)(C)Cc4c([N+](=O)[O-])ncn4C)CC3)C2=O)c1Cl.O=C([O-])C(F)(F)F [Compound 205, (E)-4-(4-(3-(2,6-dichloro-3,5-dimethoxyphenyl)-7-((4-fluorophenyl)amino)-2-oxo-3,4-dihydropyrimido[4,5-d]pyrimidin-1(2H)-yl)piperidin-1-yl)-N,N-dimethyl-N-((1-methyl-4-nitro-1H-imidazol-5-yl)methyl)-4-oxobut-2-en-1-aminium 2,2,2-trifluoroacetate] | 6 | 4 | 23 | reversible inhibitors | concentration required to suppress FGFR1 signalling through phospho-ERK1/2 [1]: > 300 nM
4 | 4020 | 3500 | 202 to 205 | COc1cc(OC)c(Cl)c(-c2cc3cnc(NC(C)C)cc3n(C3CCN(C(=O)/C=C/C[N+](C)(C)Cc4c([N+](=O)[O-])ncn4C)CC3)c2=O)c1Cl.[Br-] [Compound 215, (E)-4-(4-(3-(2,6-dichloro-3,5-dimethoxyphenyl)-7-(isopropylamino)-2-oxo-1,6-naphthyridin-1(2H)-yl)piperidin-1-yl)-N,N-dimethyl-N-((1-methyl-4-nitro-1H-imidazol-5-yl)methyl)-4-oxobut-2-en-1-aminium bromide] | 106 | 11 | 1190 | – | Hypoxic Cytotoxicity Ratio (HCR), H520 (H520 cells; ratio of oxic and anoxic IC50): 19; IC50 (H520 cells; read-out: Cellular Anti-proliferative IC50, H520, Anoxic, 4 hours of anoxia, remainder of assay oxic): 209 nM
5 | – | – | 219 | COc1cc(OC)c(Br)c(-c2cc3cnc(NC(C)C)cc3n(C3CCN(C(=O)/C=C/C[N+](C)(C)Cc4c([N+](=O)[O-])ncn4C)CC3)c2=O)c1Br.[Br-] [Compound 216, (E)-4-(4-(3-(2,6-dibromo-3,5-dimethoxyphenyl)-7-(isopropylamino)-2-oxo-1,6-naphthyridin-1(2H)-yl)piperidin-1-yl)-N,N-dimethyl-N-((1-methyl-4-nitro-1H-imidazol-5-yl)methyl)-4-oxobut-2-en-1-aminium bromide] | 59 | 6 | 346 | – | –
6 | – | – | 181 to 184 | COc1cc(OC)c(Cl)c(N2Cc3cnc(Nc4ccccc4)nc3N(C3CCN(C(=O)/C=C/C[N+](C)(C)Cc4c([N+](=O)[O-])ncn4C)CC3)C2=O)c1.[Br-] [Compound 217, (E)-4-(4-(3-(2-chloro-3,5-dimethoxyphenyl)-2-oxo-7-(phenylamino)-3,4-dihydropyrimido[4,5-d]pyrimidin-1(2H)-yl)piperidin-1-yl)-N,N-dimethyl-N-((1-methyl-4-nitro-1H-imidazol-5-yl)methyl)-4-oxobut-2-en-1-aminium bromide] | 7 | 4 | 24 | – | –
7 | – | – | > 295 | COc1cc(OC)c(Cl)c(N2Cc3cnc(Nc4ccc(N5CCOCC5)cc4)nc3N(C3CCN(C(=O)/C=C/C[N+](C)(C)Cc4c([N+](=O)[O-])ncn4C)CC3)C2=O)c1Cl.[Br-] [Compound 218, (E)-4-(4-(3-(2,6-dichloro-3,5-dimethoxyphenyl)-7-((4-morpholinophenyl)amino)-2-oxo-3,4-dihydropyrimido[4,5-d]pyrimidin-1(2H)-yl)piperidin-1-yl)-N,N-dimethyl-N-((1-methyl-4-nitro-1H-imidazol-5-yl)methyl)-4-oxobut-2-en-1-aminium bromide] | 4 | 3 | 14 | – | –
8 | – | – | 241 to 244 | COc1cc(OC)c(Cl)c(N2Cc3cnc(Nc4ccc(N5CCOCC5)cc4)nc3N(C3CCN(C(=O)/C=C/C[N+](C)(C)Cc4c([N+](=O)[O-])ncn4C)CC3)C2=O)c1.[Br-] [Compound 219, (E)-4-(4-(3-(2-chloro-3,5-dimethoxyphenyl)-7-((4-morpholinophenyl)amino)-2-oxo-3,4-dihydropyrimido[4,5-d]pyrimidin-1(2H)-yl)piperidin-1-yl)-N,N-dimethyl-N-((1-methyl-4-nitro-1H-imidazol-5-yl)methyl)-4-oxobut-2-en-1-aminium bromide] | 22 | 2 | 52 | – | –
9 | – | – | 192 to 195 | COc1cc(OC)cc(N2Cc3cnc(Nc4ccc(N5CCOCC5)cc4)nc3N(C3CCN(C(=O)/C=C/C[N+](C)(C)Cc4c([N+](=O)[O-])ncn4C)CC3)C2=O)c1.[Br-] [Compound 220, (E)-4-(4-(3-(3,5-dimethoxyphenyl)-7-((4-morpholinophenyl)amino)-2-oxo-3,4-dihydropyrimido[4,5-d]pyrimidin-1(2H)-yl)piperidin-1-yl)-N,N-dimethyl-N-((1-methyl-4-nitro-1H-imidazol-5-yl)methyl)-4-oxobut-2-en-1-aminium bromide] | 48 | 36 | 1720 | – | –
10 | – | – | – | CCN(CC)CCCCNc1ncc2cc(-c3cc(OC)cc(OC)c3)c(NC(=O)NC(C)(C)C)nc2n1 [PD173074, reference compound] | – | – | – | potent reversible inhibitor | inhibition of phosphorylation of ERK1/2, no washout ([2]; 100 nM): less effective; phospho-ERK1/2 after extensive drug washout ([2]; 100 nM): restoration; inhibition of phosphorylation of ERK1/2, no washout ([2]; 1000 nM): complete inhibition; phospho-ERK1/2 after extensive drug washout ([2]; 1000 nM): restoration; IC50 [3]: 84 nM; IC50 [4]: 12 nM; phospho-ERK1/2 after extensive drug washout ([1]; 100 nM): restoration; phospho-ERK1/2 after extensive drug washout ([1]; 1000 nM): restoration; concentration required to suppress FGFR1 signalling through phospho-ERK1/2 [1]: ≤ 100 nM; phospho-ERK1/2 after extensive drug washout ([5]; 100 nM): restoration; phospho-ERK1/2 after extensive drug washout ([5]; 1000 nM): restoration
